What was measured:
Type in all cases: in vivo
[1] = tested on: lambsquarters (Chenopodium album); assay: Test B pre-/postemergence plant response
How it was run: (§1)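 Seeds were sown in loam soil/sand blend and treated preemergence with compound in non-phytotoxic solvent mixture containing surfactant; postemergence sprays, same formulation, went onto plants 2 to 18 cm (1- to 4-leaf stage) in peat-based planting medium. Greenhouse 13 to 15 days, then visual rating versus untreated controls, 0 (no effect) to 100 (complete control).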

soybean (Glycine max) = assay: Test B pre-/postemergence plant response
How it was run: as §1

[2] = tested on: ragweed (common ragweed, Ambrosia elatior); assay: Test B pre-/postemergence plant response
How it was run: as §1

[3] = tested on: pigweed (Amaranthus retroflexus); assay: Test B pre-/postemergence plant response
How it was run: as §1

[4] = tested on: bermudagrass (Cynodon dactylon); assay: Test B pre-/postemergence plant response; details: for Bermudagrass plant response rating (0 to 100 scale): 62 g ai/ha, 0 is no effect
How it was run: as §1

[5] = tested on: johnsongrass (Sorghum halepense); assay: Test B pre-/postemergence plant response
How it was run: as §1

[6] = tested on: green foxtail (Setaria viridis); assay: Test B pre-/postemergence plant response
How it was run: as §1

wild oat (Avena fatua) = assay: Test B pre-/postemergence plant response
How it was run: as §1

[7] = tested on: giant foxtail (Setaria faberii); assay: Test B pre-/postemergence plant response
How it was run: as §1

[8] = tested on: cocklebur (Xanthium strumarium); assay: Test B pre-/postemergence plant response
How it was run: as §1

corn (Zea mays) = assay: Test B pre-/postemergence plant response
How it was run: as §1

kochia (Kochia scoparia) = assay: Test B pre-/postemergence plant response
How it was run: as §1

rice (Oryza sativa) = assay: Test B flooded paddy test; details: for Plant response rating, Flood, Rice: 250 g ai/ha, flooded paddy test, visual rating on 0 to 100 scale (0 no effect, 100 complete control) after 13 to 15 days; for Plant response rating, Rice: Flood (flooded paddy test), 13 to 15 days; for Rice plant response rating: Flood, 31 g ai/ha, scale 0 to 100 (0 no effect, 100 complete control)
How it was run: (§2)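 Flooded-pot test: water raised to 3 cm above soil when treating, compound put in the water, level unchanged thereafter. Plants were at 2 leaves. Readout after 13 to 15 days, visual, relative to controls; 0 signifies no effect and 100 complete control.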

[9] = tested on: umbrella sedge (Cyperus difformis); assay: Test B flooded paddy test; details: for Plant response rating, Flood, Sedge, Umbrella: 250 g ai/ha, flooded paddy test, visual rating on 0 to 100 scale (0 no effect, 100 complete control) after 13 to 15 days; for Plant response rating, Sedge, Umbrella: Flood (flooded paddy test), 13 to 15 days; for Sedge, Umbrella plant response rating: Flood, 31 g ai/ha, scale 0 to 100 (0 no effect, 100 complete control)
How it was run: as §2

[10] = tested on: ducksalad (Heteranthera limosa); assay: Test B flooded paddy test; details: for Plant response rating, Flood, Ducksalad: 250 g ai/ha, flooded paddy test, visual rating on 0 to 100 scale (0 no effect, 100 complete control) after 13 to 15 days; for Plant response rating, Ducksalad: Flood (flooded paddy test), 13 to 15 days; for Ducksalad plant response rating: Flood, 31 g ai/ha, scale 0 to 100 (0 no effect, 100 complete control)
How it was run: as §2

[11] = tested on: barnyardgrass (Echinochloa crus-galli); assay: Test B flooded paddy test; details: for Plant response rating, Flood, Barnyardgrass: 250 g ai/ha, flooded paddy test, visual rating on 0 to 100 scale (0 no effect, 100 complete control) after 13 to 15 days; for Plant response rating, Barnyardgrass: Flood (flooded paddy test), 13 to 15 days; for Barnyardgrass plant response rating: Flood, 31 g ai/ha, scale 0 to 100 (0 no effect, 100 complete control)
How it was run: as §2

[12] = Postemergence, 31 g ai/ha, 0 to 100 scale (0 no effect, 100 complete control)
[13] = Postemergence, 125 g ai/ha, scale 0 to 100 (0 no effect, 100 complete control)
[14] = Postemergence, 250 g ai/ha, scale 0 to 100 (0 no effect, 100 complete control), 13 to 15 days
[15] = postemergence, 100 is complete control, 13 to 15 days
[16] = 62 g ai/ha, scale of 0 to 100 where 0 is no effect and 100 is complete control
[17] = 125 g ai/ha, scale 0 to 100, 0 is no effect, 100 is complete control
[18] = 31 g ai/ha, postemergence, scale 0 to 100, 0 is no effect, 100 is complete control
[19] = 62 g ai/ha, postemergence, 0 is no effect, 100 is complete control, 13 to 15 days
[20] = Postemergence, 125 g ai/ha, visual rating after 13 to 15 days, scale 0 (no effect) to 100 (complete control)
[21] = Postemergence, 250 g ai/ha, scale 0 to 100 (0 no effect, 100 complete control)

SMILES: O=C1CCCC(O)=C1C(=O)c1cnc(-c2ccsc2)n(C2CCOCC2)c1=O [Compound 186]
- Plant response rating, Lambsquarters [1, 12]: 98
- Plant response rating, Lambsquarters [1, 13]: 100
- Plant response rating, Lambsquarters [1, 14]: 100
- Plant response rating, Soybean (soybean (Glycine max); [12]): 85
- Plant response rating, Soybean (soybean (Glycine max); [13]): 100
- Plant response rating, Soybean (soybean (Glycine max); [14]): 100
- Plant response rating, Ragweed [2, 12]: 85
- Plant response rating, Ragweed [2, 13]: 100
- Plant response rating, Ragweed [2, 14]: 100
- Plant response rating, Pigweed [3, 12]: 85
- Plant response rating, Pigweed [3, 13]: 100
- Plant response rating, Pigweed [3, 14]: 100
- Bermudagrass plant response rating (0 to 100 scale) [4, 15]: 80
- Plant response rating, Bermudagrass [4, 12]: 80
- Plant response rating, Bermudagrass [4, 13]: 95
- Plant response rating, Bermudagrass [4, 14]: 98
- Plant response rating, Johnsongrass [5, 12]: 65
- Plant response rating, Johnsongrass [5, 13]: 75
- Plant response rating, Johnsongrass [5, 14]: 100
- Plant response rating, Foxtail, Green [6, 12]: 50
- Plant response rating, Foxtail, Green [6, 13]: 85
- Plant response rating, Foxtail, Green [6, 14]: 95
- Plant response rating, Oat, Wild (wild oat (Avena fatua); [12]): 0
- Plant response rating, Oat, Wild (wild oat (Avena fatua); [13]): 20
- Plant response rating, Oat, Wild (wild oat (Avena fatua); [14]): 45
- Plant response rating, Foxtail, Giant [7, 12]: 75
- Plant response rating, Foxtail, Giant [7, 13]: 95
- Plant response rating, Foxtail, Giant [7, 14]: 95
- Plant response rating, Cocklebur [8, 12]: 90
- Plant response rating, Cocklebur [8, 13]: 100
- Plant response rating, Cocklebur [8, 14]: 100
- Plant response rating, Corn (corn (Zea mays); [12]): 10
- Plant response rating, Corn (corn (Zea mays); [13]): 30
- Plant response rating, Corn (corn (Zea mays); [14]): 65
- Plant response rating, Kochia (kochia (Kochia scoparia); [12]): 75
- Plant response rating, Kochia (kochia (Kochia scoparia); [13]): 100
- Plant response rating, Kochia (kochia (Kochia scoparia); [14]): 100
- Plant response rating, Flood, Rice (rice (Oryza sativa)): 65
- Plant response rating, Rice (rice (Oryza sativa); [16]): 20
- Plant response rating, Rice (rice (Oryza sativa); [17]): 45
- Rice plant response rating (rice (Oryza sativa)): 10
- Plant response rating, Flood, Sedge, Umbrella [9]: 90
- Plant response rating, Sedge, Umbrella [9, 16]: 80
- Plant response rating, Sedge, Umbrella [9, 17]: 80
- Sedge, Umbrella plant response rating [9]: 70
- Plant response rating, Flood, Ducksalad [10]: 100
- Plant response rating, Ducksalad [10, 16]: 90
- Plant response rating, Ducksalad [10, 17]: 90
- Ducksalad plant response rating [10]: 90
- Plant response rating, Flood, Barnyardgrass [11]: 30
- Plant response rating, Barnyardgrass [11, 16]: 20
- Plant response rating, Barnyardgrass [11, 17]: 30
- Barnyardgrass plant response rating [11]: 0

SMILES: CCCc1ncc(C(=O)C2=C(O)CCCC2=O)c(=O)n1-c1cccc(C)c1 [Compound 79]
- Plant response rating, Lambsquarters [1, 18]: 95
- Lambsquarters plant response rating (0 to 100 scale) [1, 19]: 98
- Plant response rating, Lambsquarters [1, 20]: 100
- Plant response rating, Lambsquarters [1, 21]: 100
- Plant response rating, Soybean (soybean (Glycine max); [18]): 75
- Soybean plant response rating (0 to 100 scale) (soybean (Glycine max); [19]): 90
- Plant response rating, Soybean (soybean (Glycine max); [20]): 95
- Plant response rating, Soybean (soybean (Glycine max); [21]): 98
- Plant response rating, Ragweed [2, 18]: 80
- Ragweed plant response rating (0 to 100 scale) [2, 19]: 85
- Plant response rating, Ragweed [2, 20]: 95
- Plant response rating, Ragweed [2, 21]: 98
- Plant response rating, Pigweed [3, 18]: 100
- Pigweed plant response rating (0 to 100 scale) [3, 19]: 100
- Plant response rating, Pigweed [3, 20]: 100
- Plant response rating, Pigweed [3, 21]: 100
- Plant response rating, Bermudagrass [4, 18]: 80
- Bermudagrass plant response rating (0 to 100 scale) [4, 15]: 80
- Plant response rating, Bermudagrass [4, 20]: 85
- Plant response rating, Bermudagrass [4, 21]: 85
- Plant response rating, Johnsongrass [5, 18]: 0
- Johnsongrass plant response rating (0 to 100 scale) [5, 19]: 65
- Plant response rating, Johnsongrass [5, 20]: 70
- Plant response rating, Johnsongrass [5, 21]: 75
- Plant response rating, Foxtail, Green [6, 18]: 60
- Foxtail, Green plant response rating (0 to 100 scale) [6, 19]: 60
- Plant response rating, Foxtail, Green [6, 20]: 80
- Plant response rating, Foxtail, Green [6, 21]: 98
- Plant response rating, Oat, Wild (wild oat (Avena fatua); [18]): 40
- Oat, Wild plant response rating (0 to 100 scale) (wild oat (Avena fatua); [19]): 45
- Plant response rating, Oat, Wild (wild oat (Avena fatua); [20]): 60
- Plant response rating, Oat, Wild (wild oat (Avena fatua); [21]): 75
- Plant response rating, Foxtail, Giant [7, 18]: 70
- Foxtail, Giant plant response rating (0 to 100 scale) [7, 19]: 75
- Plant response rating, Foxtail, Giant [7, 20]: 95
- Plant response rating, Foxtail, Giant [7, 21]: 95
- Plant response rating, Cocklebur [8, 18]: 95
- Cocklebur plant response rating (0 to 100 scale) [8, 19]: 98
- Plant response rating, Cocklebur [8, 20]: 98
- Plant response rating, Cocklebur [8, 21]: 98
- Plant response rating, Corn (corn (Zea mays); [18]): 5
- Corn plant response rating (0 to 100 scale) (corn (Zea mays); [19]): 45
- Plant response rating, Corn (corn (Zea mays); [20]): 60
- Plant response rating, Corn (corn (Zea mays); [21]): 75
- Plant response rating, Kochia (kochia (Kochia scoparia); [18]): 75
- Kochia plant response rating (0 to 100 scale) (kochia (Kochia scoparia); [19]): 75
- Plant response rating, Kochia (kochia (Kochia scoparia); [20]): 75
- Plant response rating, Kochia (kochia (Kochia scoparia); [21]): 80
- Plant response rating, Flood, Rice (rice (Oryza sativa)): 20
- Plant response rating, Rice (rice (Oryza sativa); [16]): 0
- Plant response rating, Rice (rice (Oryza sativa); [17]): 15
- Rice plant response rating (rice (Oryza sativa)): 0
- Plant response rating, Flood, Sedge, Umbrella [9]: 30
- Plant response rating, Sedge, Umbrella [9, 16]: 0
- Plant response rating, Sedge, Umbrella [9, 17]: 0
- Sedge, Umbrella plant response rating [9]: 0
- Plant response rating, Flood, Ducksalad [10]: 40
- Plant response rating, Ducksalad [10, 16]: 0
- Plant response rating, Ducksalad [10, 17]: 15
- Ducksalad plant response rating [10]: 0
- Plant response rating, Flood, Barnyardgrass [11]: 30
- Plant response rating, Barnyardgrass [11, 16]: 0
- Plant response rating, Barnyardgrass [11, 17]: 20
- Barnyardgrass plant response rating [11]: 0

Reference: US8952024B2, “Herbicidal pyrimidone derivatives” (E I du Pont de Nemours and Company, priority 2009, dated 2015)
